# Test results as given in patent US9907307B2, “Aromatic compound and uses thereof” (SUMITOMO CHEMICAL COMPANY, LIMITED, priority 2014, dated 2018).
# Tested on: wheat septoria tritici blotch fungus (Mycosphaerella graminicola)
# Experiment: Control test against wheat septoria tritici blotch fungus, titer plate growth (Test Example 1)
# Format: cell-based
# Details: 150 ppm in DMSO, 1 μl in 150 μl medium, 96-well plate, 18° C., 4 days
smiles,measurement,value
CCOC(=O)C(=O)c1ccccc1COc1ccc(-c2cc(Cl)n(C)n2)cc1C [present compound 1],"control activity (Equation 1, degree of growth by absorbance at 550 nm)",≥ 70%
